Reference: patent US12091402B2 (Avilar Therapeutics, Inc., priority 2021, dated 2024)
Where two headings read alike, the source gives them in different places. *1 amine or outer side, *2 acyl side, *3 side chain or, on linkers, in order; H or OH if unused. Where a SMILES comes first, the peptide text is derived from it. Bridges are numbered along the chain shown (N, C = ends). [ ]: non-standard residue; d: D form. The star is where a group is joined. X2 = O=C(CCOCC(COCCC(=O)NCCOCCOCCOCCOC[C@H]1OC[C@H](Nc2cncc(C(F)(F)F)n2)[C@@H](O)[C@H]1O)NCC(=O)*)NCCOCCOCCOCCOC[C@H]1OC[C@H](Nc2cncc(C(F)(F)F)n2)[C@@H](O)[C@H]1O; X1 = O=C([C@@H]1C[C@H](N[*:3])CN1[*:1])[*:2]

What was measured:
IgG = test: Affinity to IgG by surface plasmon resonance (SPR); format: binding
Description: Immobilization levels ranging from 1000-1300 resonance units (RU) are obtained. The running buffer is 10 mM HEPES, pH 7.4, 400 mM NaCl, 0.005% P20, […].

HepG2 cells = test: Cellular uptake assay of AF488-labeled antibody (HepG2); format: cell-based; conditions: HepG2 cells
Outline: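 HepG2 cells given 100 nM AF488-labeled human IgG or DNP antibody plus serial dilutions of matching degrader (0.1% DMSO final), 6 h at 37° C. Methanol-fixed, DAPI-stained and imaged by high-content analysis. Value is the fraction of AF488-positive cells over total DAPI-counted cells.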

[1] = molecular target: T1, ASGPR receptor on the cell surface (HepG2 cells) (Homo sapiens, UniProt P07306); test: Ternary complex formation assay (flow cytometry, HepG2); format: cell-based
T1 construct: host or cells: HepG2
T1 sequence (P07306 1-291): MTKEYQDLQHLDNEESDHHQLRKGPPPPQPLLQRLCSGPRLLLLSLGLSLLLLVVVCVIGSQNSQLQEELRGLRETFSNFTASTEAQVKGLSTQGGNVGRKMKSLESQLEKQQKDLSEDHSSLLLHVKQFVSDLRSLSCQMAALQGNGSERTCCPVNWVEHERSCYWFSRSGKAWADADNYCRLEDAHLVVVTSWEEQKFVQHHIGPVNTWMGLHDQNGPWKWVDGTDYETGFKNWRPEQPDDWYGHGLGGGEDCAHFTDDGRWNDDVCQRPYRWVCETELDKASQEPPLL
T1 sequence (P07307 1-311 partner): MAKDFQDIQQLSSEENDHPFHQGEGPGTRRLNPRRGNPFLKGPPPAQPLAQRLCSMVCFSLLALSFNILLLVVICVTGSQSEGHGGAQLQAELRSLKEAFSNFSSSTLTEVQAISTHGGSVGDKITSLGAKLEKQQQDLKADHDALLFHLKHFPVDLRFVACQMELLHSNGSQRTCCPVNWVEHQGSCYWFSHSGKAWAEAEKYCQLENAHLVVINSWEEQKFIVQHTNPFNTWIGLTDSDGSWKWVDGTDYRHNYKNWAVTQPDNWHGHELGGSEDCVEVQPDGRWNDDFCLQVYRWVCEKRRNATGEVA
Outline: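 HepG2 cells (1×10^5/well) incubated 1 h at 4 °C with 100 nM AF488-labeled anti-human IgG plus serial IgG-based degrader, or 100 nM AF488 rabbit anti-DNP plus serial DNP-based degrader. After washing, cell-associated AF488 MFI read by flow cytometry; peak MFI marks optimal degrader concentration for ternary complex.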

ASGPR = molecular target: T2, ASGPR (Homo sapiens, UniProt P07306); test: Affinity to ASGPR by surface plasmon resonance (SPR)
T2 sequence (P07306 1-291): T1 sequence (P07306 1-291)

[2] = TCF EC50, HepG2 cells, ternary complex formation
[3] = HepG2 cells, ternary complex formation, read-out: TCF EC50
[4] = 100 nM AF488-labeled antibody, 37° C. for 6 hours, class symbols, read-out: Uptake Assay EC50

CC(C)C[C@@H]1NC(=O)[C@H](Cc2cnc[nH]2)NC(=O)[C@H](Cc2c[nH]c3ccccc23)NC(=O)[C@H](C)NC(=O)[C@@H]2CSSC[C@H](NC(=O)[C@H](Cc3c[nH]c4ccccc34)NC(=O)[C@H](C(C)C)NC(=O)[C@H](CC(C)C)NC(=O)[C@H](CCC(=O)N(C)C)NC(=O)CNC1=O)C(=O)N[C@@H]([C@@H](C)O)C(=O)N1CCC[C@@H]1C(=O)N1C[C@@H](NC(=O)CNC(COCCC(=O)NCCOCCOCCOCCOC[C@H]3OC[C@H](Nc4cncc(C(F)(F)F)n4)[C@@H](O)[C@H]3O)COCCC(=O)NCCOCCOCCOCCOC[C@H]3OC[C@H](Nc4cncc(C(F)(F)F)n4)[C@@H](O)[C@H]3O)C[C@H]1C(=O)N[C@@H](C)C(=O)N2 [Compound 77]
Kd (IgG; SPR, read-out: IgG KD): < 100 nM
EC50 (HepG2 cells; read-out: Uptake EC50): < 100 nM
EC50 [1, 2]: < 100 nM
Kd (ASGPR): < 100 nM

CC(C)C[C@@H]1NC(=O)[C@H](Cc2cnc[nH]2)NC(=O)[C@H](Cc2c[nH]c3ccccc23)NC(=O)[C@H](C)NC(=O)[C@@H]2CSSC[C@H](NC(=O)[C@H](Cc3c[nH]c4ccccc34)NC(=O)[C@H](C(C)C)NC(=O)[C@H](CC(C)C)NC(=O)[C@H](CCC(=O)O)NC(=O)CNC1=O)C(=O)N[C@@H]([C@@H](C)O)C(=O)N1CCC[C@@H]1C(=O)N1C[C@@H](NC(=O)COc3ccc(CC(=O)NC[C@H]4OC[C@H](Nc5cncc(C(F)(F)F)n5)[C@@H](O)[C@H]4O)cc3)C[C@H]1C(=O)N[C@@H](CC(=O)O)C(=O)N2 [Compound 61]
Kd (IgG; SPR, read-out: IgG KD): < 100 nM
EC50 (HepG2 cells; read-out: Uptake EC50): < 100 nM
EC50 [1, 3]: < 100 nM
Kd (ASGPR): < 100 nM

CC(C)C[C@@H]1NC(=O)[C@H](Cc2c[nH]cn2)NC(=O)[C@H](Cc2c[nH]c3ccccc23)NC(=O)[C@H](C)NC(=O)[C@@H]2CSSC[C@H](NC(=O)[C@H](Cc3c[nH]c4ccccc34)NC(=O)[C@H](C(C)C)NC(=O)[C@H](CC(C)C)NC(=O)[C@H](CCC(=O)O)NC(=O)CNC1=O)C(=O)N[C@@H]([C@@H](C)O)C(=O)N1CCC[C@@H]1C(=O)N1C[C@@H](NC(=O)CCOCCOCCOCCOCCNC(=O)CCCc3cn(CCCCCC(=O)NC(COCCC(=O)NCCOCCOCCOCCOC[C@H]4OC[C@H](Nc5nccc(C(F)(F)F)n5)[C@@H](O)[C@H]4O)COCCC(=O)NCCOCCOCCOCCOC[C@H]4OC[C@H](Nc5nccc(C(F)(F)F)n5)[C@@H](O)[C@H]4O)nn3)C[C@H]1C(=O)N[C@@H](CC(=O)O)C(=O)N2 [Compound 16]
Kd (IgG; Biacore 8K, 25° C., IgG on CM5 chip, read-out: IgG SPR Binding Kd): < 100 nM
Kd (IgG; SPR, read-out: IgG KD): < 100 nM
EC50 (HepG2 cells; [4]): < 100 nM
EC50 (HepG2 cells; read-out: Uptake EC50): < 100 nM
EC50 [1]: < 100 nM
EC50 ([1]; read-out: Ternary Complex EC50): < 100 nM
Kd (ASGPR): < 100 nM
Kd (ASGPR; read-out: ASGPR KD): < 100 nM

CC(C)C[C@@H]1NC(=O)[C@H](Cc2cnc[nH]2)NC(=O)[C@H](Cc2c[nH]c3ccccc23)NC(=O)[C@H](C)NC(=O)[C@@H]2CSSC[C@H](NC(=O)[C@H](Cc3c[nH]c4ccccc34)NC(=O)[C@H](C(C)C)NC(=O)[C@H](CC(C)C)NC(=O)[C@H](CCC(=O)O)NC(=O)CNC1=O)C(=O)N[C@@H]([C@@H](C)O)C(=O)N1CCC[C@@H]1C(=O)N1C[C@@H](NC(=O)CCN3CCN(CC(=O)NC[C@H]4OC[C@H](Nc5cncc(C(F)(F)F)n5)[C@@H](O)[C@H]4O)CC3)C[C@H]1C(=O)N[C@@H](CC(=O)O)C(=O)N2 [Compound 63]
Kd (IgG; SPR, read-out: IgG KD): < 100 nM
EC50 (HepG2 cells; read-out: Uptake EC50): < 100 nM
EC50 [1, 3]: < 100 nM
Kd (ASGPR): 100 to 500 nM

CC(C)C[C@@H]1NC(=O)[C@H](Cc2cnc[nH]2)NC(=O)[C@H](Cc2c[nH]c3ccccc23)NC(=O)[C@H](C)NC(=O)[C@@H]2CSSC[C@H](NC(=O)[C@H](Cc3c[nH]c4ccccc34)NC(=O)[C@H](C(C)C)NC(=O)[C@H](CC(C)C)NC(=O)[C@H](CCC(=O)O)NC(=O)CNC1=O)C(=O)N[C@@H]([C@@H](C)O)C(=O)N1CCC[C@@H]1C(=O)N1C[C@@H](NC(=O)c3ccc(-c4ccc(C(=O)NC[C@H]5OC[C@H](Nc6cncc(C(F)(F)F)n6)[C@@H](O)[C@H]5O)cc4)cc3)C[C@H]1C(=O)N[C@@H](CC(=O)O)C(=O)N2 [Compound 72]
Kd (IgG; SPR, read-out: IgG KD): < 100 nM
EC50 (HepG2 cells; read-out: Uptake EC50): < 100 nM
EC50 [1, 3]: 500 to 1000 nM
Kd (ASGPR): < 100 nM

CC(C)C[C@@H]1NC(=O)[C@H](C)NC(=O)CNC(=O)[C@H](CC(C)C)NC(=O)[C@H](Cc2c[nH]cn2)NC(=O)[C@H](Cc2c[nH]c3ccccc23)NC(=O)[C@H](C)NC(=O)[C@@H]2CSSC[C@H](NC(=O)[C@H](Cc3c[nH]c4ccccc34)NC(=O)[C@H](C(C)C)NC1=O)C(=O)N[C@@H]([C@@H](C)O)C(=O)N1CCC[C@@H]1C(=O)N1C[C@@H](NC(=O)CNC(COCCC(=O)NCCOCCOCCOCCOC[C@H]3OC[C@H](Nc4cncc(C(F)(F)F)n4)[C@@H](O)[C@H]3O)COCCC(=O)NCCOCCOCCOCCOC[C@H]3OC[C@H](Nc4cncc(C(F)(F)F)n4)[C@@H](O)[C@H]3O)C[C@H]1C(=O)N[C@@H](CC(N)=O)C(=O)N2 [Compound 79] (cyclo(ALVWCT[dP][X1](X2)NCAWHLG); disulfide 5-10)
Kd (IgG; SPR, read-out: IgG KD): < 100 nM
EC50 (HepG2 cells; read-out: Uptake EC50): < 100 nM
EC50 [1, 2]: < 100 nM
Kd (ASGPR): < 100 nM

CC(C)C[C@@H]1NC(=O)[C@H](Cc2c[nH]cn2)NC(=O)[C@H](Cc2c[nH]c3ccccc23)NC(=O)[C@H](C)NC(=O)[C@@H]2CSSC[C@H](NC(=O)[C@H](Cc3c[nH]c4ccccc34)NC(=O)[C@H](C(C)C)NC(=O)[C@H](CC(C)C)NC(=O)[C@H](CCC(=O)O)NC(=O)CNC1=O)C(=O)N[C@@H]([C@@H](C)O)C(=O)N1CCC[C@@H]1C(=O)N1C[C@@H](NC(=O)CCOCCOCCOCCOCCNC(=O)CCCc3cn(CCCCCC(=O)NC(COCCC(=O)NCCOCCOCCOCCOC[C@@]45CO[C@@H](O4)[C@H](NC(=O)C(F)(F)F)[C@@H](O)[C@H]5O)(COCCC(=O)NCCOCCOCCOCCOC[C@@]45CO[C@@H](O4)[C@H](NC(=O)C(F)(F)F)[C@@H](O)[C@H]5O)COCCC(=O)NCCOCCOCCOCCOC[C@@]45CO[C@@H](O4)[C@H](NC(=O)C(F)(F)F)[C@@H](O)[C@H]5O)nn3)C[C@H]1C(=O)N[C@@H](CC(=O)O)C(=O)N2 [Compound 95]
Kd (IgG; SPR, read-out: IgG KD): < 100 nM
EC50 (HepG2 cells; read-out: Uptake EC50): < 100 nM
EC50 [1]: < 100 nM
Kd (ASGPR): < 100 nM

CC(C)C[C@@H]1NC(=O)[C@H](Cc2cnc[nH]2)NC(=O)[C@H](Cc2c[nH]c3ccccc23)NC(=O)[C@H](C)NC(=O)[C@@H]2CSSC[C@H](NC(=O)[C@H](Cc3c[nH]c4ccccc34)NC(=O)[C@H](C(C)C)NC(=O)[C@H](CC(C)C)NC(=O)[C@H](CCC(=O)O)NC(=O)CNC1=O)C(=O)N[C@@H]([C@@H](C)O)C(=O)N1CCC[C@@H]1C(=O)N1C[C@@H](NC(=O)COCCOCC(=O)NC[C@H]3OC[C@H](Nc4cncc(C(F)(F)F)n4)[C@@H](O)[C@H]3O)C[C@H]1C(=O)N[C@@H](CC(=O)O)C(=O)N2 [Compound 42]
Kd (IgG; SPR, read-out: IgG KD): < 100 nM
EC50 (HepG2 cells; [4]): < 100 nM
EC50 (HepG2 cells; read-out: Uptake EC50): < 100 nM
EC50 [1]: < 100 nM
EC50 ([1]; read-out: Ternary Complex EC50): < 100 nM
Kd (ASGPR): < 100 nM

CC(C)C[C@@H]1NC(=O)[C@H](Cc2cnc[nH]2)NC(=O)[C@H](Cc2c[nH]c3ccccc23)NC(=O)[C@H](C)NC(=O)[C@@H]2CSSC[C@H](NC(=O)[C@H](Cc3c[nH]c4ccccc34)NC(=O)[C@H](C(C)C)NC(=O)[C@H](CC(C)C)NC(=O)[C@H](CCC(=O)O)NC(=O)CNC1=O)C(=O)N[C@@H]([C@@H](C)O)C(=O)N1CCC[C@@H]1C(=O)N1C[C@@H](NC(=O)CNC(COCCC(=O)NC[C@H]3OC[C@H](Nc4cncc(C(F)(F)F)n4)[C@@H](O)[C@H]3O)COCCC(=O)NC[C@H]3OC[C@H](Nc4cncc(C(F)(F)F)n4)[C@@H](O)[C@H]3O)C[C@H]1C(=O)N[C@@H](CC(=O)O)C(=O)N2 [Compound 65]
Kd (IgG; SPR, read-out: IgG KD): < 100 nM
EC50 (HepG2 cells; read-out: Uptake EC50): < 100 nM
EC50 [1, 3]: < 100 nM
Kd (ASGPR): < 100 nM
